# Test results reported in patent EP0528661A2, “HIV protease inhibitors with N-terminal polyether substituents” (MERCK & CO. INC., priority 1991, dated 1993).
# pIC50: −log10 of the molar value.
# Target: T1, HIV protease (Human immunodeficiency virus type 1 group M subtype B, UniProt P12497)
# T1 construct: the protease expressed in Eschericia coli; made in house; host or cells: Escherichia coli
# Test: Assay for inhibition of microbial expressed viral protease (peptide substrate cleavage, HPLC quantitation)
# Type: biochemical
# Details: protease expressed in Eschericia coli; peptide substrate Val-Ser-Gln-Asn-(betanapthyl)Ala-Pro-Ile-Val 0.5 mg/mL; 50 mM Na acetate, pH 5.5, 30°C, 1 hour; read-out: IC₅₀
# Method: Assay for Inhibition of Microbial Expressed Viral Protease
# Inhibition studies of the reaction of the protease expressed in Eschericia coli with a peptide substrate [Val-Ser-Gln-Asn-(betanapthyl)Ala-Pro-Ile-Val, 0.5 mg/mL at the time the reaction is initiated] were in 50 mM Na acetate, pH 5.5, at 30°C for 1 hour. Various concentrations of inhibitor in 1.0 ul DMAO were added to 25 ul of the peptide solution in water. The reaction is initiated by the addition of 15 ul of 0.33 nM protease (0.11 ng) in a solution of 0.133 M Na acetate pH 5.5 and 0.26% bovine serum albumin. The reaction was quenched with 160 ul of 5% phosphoric acid. Products of the reaction were separated by HPLC (VYDAC wide pore 5 cm C-18 reverse phase, acetonitrile gradient, 0.1% phosphoric acid). The extent of inhibition of the reaction was determined from the peak heights of the products.
smiles,measurement,value
"COCCOCCOCCOCCOC(=O)N[C@@H](Cc1ccccc1)[C@@H](O)C[C@@H](Cc1ccccc1)C(=O)N[C@H]1c2ccccc2C[C@H]1O [Compound A, N-(2(R)-hydroxy-1(S)-indanyl)-5(S)-(3,6,9,12-tetraoxatridecyloxycarbonylamino)-4(S)-hydroxy-2(R)-phenylmethyl-6-phenylhexanamide]",pIC50,~8.30
